Measured values reported in patent US20170320939A1, “COLL2-1 PEPTIDE AND ITS NITRATED FORM AS THERAPEUTIC TARGETS FOR OSTEOARTHRITIS TREATMENT” (Université de Liège, priority 2014, published 2017).

What was measured:
female Lewis rats [1] = assay: In-vivo study, I.A. injection compared to SCW (streptococcal cell walls) model; conditions: for global histological score, right knee (injected): not significant
Procedure: (§1) An in-vivo study was performed to evaluate the potential immunizing effect of Coll2-1 peptide. This effect was evaluated in comparison with two validated models of rheumatoid arthritis: CIA (Collagen induced arthritis) and SCW (Streptococcal cell walls). The peptide has been injected once subcutaneous, at the base of the tail (S.C.—evaluation of systemic inflammation) or intra-articular (I.A.—evaluation of mono-articular inflammation) in female Lewis rats. Naïve controls (saline) were considered. Animals were euthanized 21 or 28 days after injection.
(§2) All animals (n=108 females; 96.0-129.7 gr) included in the study were identified by a unique chip. They were randomly distributed into 8 study groups (n=16/group except nave controls n=6/group, n=8/each time point) before induction (DO) based on their body weight (FIG. 1). • Injected controls (2 groups) • Group 1: bovin type II collagen (CIA)—S.C. (n=16) • Group 2: streptococcal cell wail (SCW)—I.A. (n=16) • Test groups (4 groups) • Group 3: Peptide dose 200 μg/100 μl—S.C. (n=16) • Group 4: Peptide dose 20 μg/100 μl—S.C. (n=16) • Group 5: Peptide dose 5 μg/50 μl—I.A. (n=16) • Group 6: Peptide dose 0.5 μg/50 μl—I.A. (n=16) • Naïve controls (2 groups) • Group 7: saline S.C. (n=6) • Group 8: saline I.A. (n=6)
(§3) Two injection ways were chosen to evaluate the potential effect of the peptide: intra-articular (I.A.) and subcutaneous (S.C.), two route classically used in the art.
(§4) Coll2-1 peptide was administered either I.A. under a 50 μL volume into the right knee or S.C. under a 100 μL volume at the base of the tail.
(§5) SCW was administered I.A. into the right knee under a 50 μL volume. Bovine type II collagen (CIA) was administered under 100 μL volume at the base of the tail.
(§6) Two doses of the Coll2-1 peptide were tested in both conditions.
It was administered I.A. at 5 and 0.5 μg under 50 μL
(§7) Coll2-1 peptide was administered once (DO).
(§8) Joint was considered arthritic when significant signs of redness and/or swelling was noted. Each paw was evaluated with a visual score (0-3) • 0: normal, no joint inflammation • 1: large joint inflammation • 2: medium joint inflammation • 3: small joint (distal) inflammation
(§9) A set of 4 values were recorded on each evaluation day. The 4 values were summed for analysis.
(§10) Right and left knees diameter were measured using a digital caliper.
(§11) Animals were euthanized 21 or 28 days after injection (D0). They were anesthetized with a subcutaneous injection of a Ketamin/Medetomidine mix and further euthanized by exsanguination.
(§12) Both entire knees from each animal were processed for histological analysis, They were decalcified in a HCl/EDTA mix (DC2, Qpath, VWR Belgium) for the appropriate time before inclusion in paraffin. Three frontal sections (5 μm) of each compartment were done 200 μm apart in the weight bearing zone using a microtome. Slides were stained according to a standard Safranin-O/Fast green protocol.
(§13) Slides were evaluated under a light microscope. Each slide was score for: • Infiltration of inflammatory cells in synovial tissue (0-3) • Inflammatory cells in the joint cavity (exudate) (0-3) • Cartilage proteoglycan depletion (0-3) • Loss of articular cartilage (0-3) • Bone erosion (0-3).
(§14) Infiltration of inflammatory cells in synovial tissue and inflammatory cells in the joint cavity were considered together (sum of the scores) as inflammatory parameters for the analysis of the detailed criteria.
(§15) Statistical analysis was performed with the appropriate test using GraphPad. • Visual score and evaluations (knee diameter measurements) were analyzed with a two way ANOVA followed, if positive, by Tukey's multiple comparison test. Graphs represented the mean of each group at each evaluated time point. • Histological scores were analyzed with a Kruskal Wallis for non-parametric values followed, if positive, by a Dunn's multiple comparison test. Graphs presented as box and whisker plots. Exact p values were provided and asterisks representation were also performed.

female Lewis rats [2] = assay: In-vivo study, S.C. injection compared to CIA (collagen induced arthritis) model; conditions: for arthritis visual score, difference versus saline (Group 7): D17
Procedure: as §1, §2, §3, §4, §5, §6
It was administered S.C. at 200 and 20 μg under 100 μL.
as §7, §8, §9, §10, §11, §12, §13, §14, §15

Q: HRGYPGLDG [Coll2-1] was tested. Which “cartilage degradation score, left knee” value (female Lewis rats [1]; Coll2-1 0.5 μg I.A. (Gr6)) did it give?
A: significant increase

Q: And the “inflammatory score, left knee, versus Gr8” value (female Lewis rats [1]; Coll2-1 0.5 μg I.A. (Gr6))?
A: significant increase

Q: What about the “matrix proteoglycan loss score, left knee, versus Gr8” value (female Lewis rats [1]; Coll2-1 0.5 μg I.A. (Gr6)) of the same sequence?
A: significant increase

Q: And the “right knee diameter, difference versus Gr8 (saline)” value (female Lewis rats [1]; Coll2-1 0.5 μg I.A. (Gr6), D3)?
A: statistically different

Q: What about the “arthritis visual score, difference versus saline (Gr8)” value (female Lewis rats [1]; Coll2-1 0.5 μg I.A. (Gr6), D28) of the same sequence?
A: statistically different

Q: What about the “cartilage degradation score, right knee, versus Gr8” value (female Lewis rats [1]; Coll2-1 0.5 μg I.A. (Gr6), D28) of the same sequence?
A: significant increase

Q: What about the “global histological score, left knee, difference versus Gr2” value (female Lewis rats [1]; Coll2-1 0.5 μg I.A. (Gr6), D28) of the same sequence?
A: not significant except for Gr6

Q: What about the “global histological score, left knee, difference versus Gr8” value (female Lewis rats [1]; Coll2-1 0.5 μg I.A. (Gr6), D28) of the same sequence?
A: not significant except for Gr6

Q: And the “global histological score, right knee (injected)” value (female Lewis rats [1]; Coll2-1 0.5 μg I.A. (Gr6))?
A: intermediate between Gr8 (saline) and Gr2 (SCW)

Q: What about the “global histological score, left knee, differences” value (female Lewis rats [1]; Coll2-1 5 μg I.A. (Gr5)) of the same sequence?
A: not significant

Q: And the “arthritis visual score, difference versus Gr 6 (Coll2-1 peptide 0.5 μg)” value (female Lewis rats [1]; Coll2-1 5 μg I.A. (Gr5), D17)?
A: statistically different

Q: And the “arthritis visual score, difference versus saline (Gr8)” value (female Lewis rats [1]; Coll2-1 5 μg I.A. (Gr5), D17)?
A: statistically different

Q: And the “left knee diameter, difference versus Gr2 (SCW)” value (female Lewis rats [1]; Coll2-1 5 μg I.A. (Gr5), D17)?
A: statistically different

Q: What about the “left knee diameter, difference versus Gr8 (saline)” value (female Lewis rats [1]; Coll2-1 5 μg I.A. (Gr5), D17) of the same sequence?
A: statistically different

Q: What about the “right knee diameter, difference versus Gr8 (saline)” value (female Lewis rats [1]; Coll2-1 5 μg I.A. (Gr5), D17) of the same sequence?
A: statistically significance

Q: And the “arthritis visual score, difference versus SCW (Gr2)” value (female Lewis rats [1]; Coll2-1 5 μg I.A. (Gr5), D24)?
A: statistically different

Q: And the “global histological score, right knee (injected)” value (female Lewis rats [1]; Coll2-1 5 μg I.A. (Gr5))?
A: intermediate between Gr8 (saline) and Gr2 (SCW)

Q: And the “right knee diameter, difference Gr5 versus Gr6” value (female Lewis rats [1]; Coll2-1 5 μg versus 0.5 μg I.A., D17)?
A: statistically different

Q: And the “inflammatory criteria, right knee” value (female Lewis rats [1]; Coll2-1 peptide I.A., D28, not statistically significant)?
A: intermediate increase

Q: What about the “histological score (conclusion)” value (female Lewis rats [1]; SCW arthritis model, I.A. injection, D21 and D28) of the same sequence?
A: intermediate scores

Q: What about the arthritis visual score (female Lewis rats [1]; single I.A. injection into the right knee, D0 to D28) of the same sequence?
A: induced an increase

Q: What about the “inflammatory criteria (histology)” value (female Lewis rats [2]; Coll2-1 20 μg S.C. (Gr4), 028) of the same sequence?
A: Significant increase

Q: And the cartilage degradation criteria (female Lewis rats [2]; Coll2-1 20 μg S.C. (Gr4), D28)?
A: Significant increase

Q: What about the “loss of matrix proteoglycan” value (female Lewis rats [2]; Coll2-1 20 μg S.C. (Gr4), D28) of the same sequence?
A: Significant increase

Q: What about the “subchondral bone modification score” value (female Lewis rats [2]; Coll2-1 20 μg S.C. (Gr4), D28) of the same sequence?
A: Significant increase

Q: And the “arthritis visual score, difference versus bovine type II collagen (Group 1)” value (female Lewis rats [2]; Coll2-1 20 μg S.C. (Group 4), D21)?
A: statistically different

Q: And the “global histological score, right and left knees together, versus saline (Group 7)” value (female Lewis rats [2]; Coll2-1 20 μg S.C. (Group 4), D28)?
A: significant increase

Q: And the “arthritis visual score, difference versus saline (Group 7)” value (female Lewis rats [2]; Coll2-1 20 μg/100 μl S.C. (Group 4))?
A: statistically significant

Q: And the “inflammatory criteria (histology)” value (female Lewis rats [2]; Coll2-1 200 μg S.C. (Gr3), D21)?
A: Significant increase

Q: And the “subchondral bone modification score” value (female Lewis rats [2]; Coll2-1 200 μg S.C. (Gr3), D21)?
A: Significant increase

Q: And the cartilage degradation criteria (female Lewis rats [2]; Coll2-1 200 μg S.C. (Gr3), D28)?
A: Significant increase

Q: What about the “loss of matrix proteoglycan” value (female Lewis rats [2]; Coll2-1 200 μg S.C. (Gr3), D28) of the same sequence?
A: Significant increase

Q: What about the “global histological score, right and left knees together, versus saline (Group 7)” value (female Lewis rats [2]; Coll2-1 200 μg S.C. (Group 3), D21) of the same sequence?
A: significant increase

Q: And the “arthritis visual score, difference versus saline (Group 7)” value (female Lewis rats [2]; Coll2-1 200 μg/100 μl S.C. (Group 3))?
A: statistically significant

Q: What about the “histological score (conclusion)” value (female Lewis rats [2]; collagen arthritis model, S.C. injection) of the same sequence?
A: increase

Q: What about the arthritis visual score (female Lewis rats [2]; single S.C. injection at the base of the tail, four limbs, D0 to D28) of the same sequence?
A: induced an increase
